Molecular target: T1, G3BP1^335–466 (RRM and IDR3 domains) (Homo sapiens, UniProt Q13283)
T1 construct: RRM + IDR3, residues 335-466, N-terminal GST removed by thrombin, E. coli BL21(DE3)
Test: SPR (Biacore T200, protein on CM5 chip)
Format: binding

T1 sequence (Q13283 335-466): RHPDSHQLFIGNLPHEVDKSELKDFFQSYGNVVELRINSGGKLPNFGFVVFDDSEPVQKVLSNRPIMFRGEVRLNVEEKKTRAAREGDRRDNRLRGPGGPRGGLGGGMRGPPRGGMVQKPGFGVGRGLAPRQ

`COc1ccc(-c2oc3c(CC=C(C)C)c(O[C@@H]4O[C@H](CO)[C@@H](O)[C@H](O)[C@H]4O)cc(O)c3c(=O)c2O[C@@H]2O[C@@H](C)[C@H](O)[C@@H](O)[C@H]2O)cc1` [icariin] was tested, and the Kd was > 100 µM.

Source: paper PMC12866838, “Targeting G3BP1 Condensate Topology Promotes Stress Granule Assembly via m^6A‐IGF2BP1 for Ischemic Stroke Rescue” (Advanced Science, 2025)
